Test [1] addresses T1, KDAC8 (Homo sapiens, UniProt Q9BY41).
T1 sequence (Q9BY41 1-377): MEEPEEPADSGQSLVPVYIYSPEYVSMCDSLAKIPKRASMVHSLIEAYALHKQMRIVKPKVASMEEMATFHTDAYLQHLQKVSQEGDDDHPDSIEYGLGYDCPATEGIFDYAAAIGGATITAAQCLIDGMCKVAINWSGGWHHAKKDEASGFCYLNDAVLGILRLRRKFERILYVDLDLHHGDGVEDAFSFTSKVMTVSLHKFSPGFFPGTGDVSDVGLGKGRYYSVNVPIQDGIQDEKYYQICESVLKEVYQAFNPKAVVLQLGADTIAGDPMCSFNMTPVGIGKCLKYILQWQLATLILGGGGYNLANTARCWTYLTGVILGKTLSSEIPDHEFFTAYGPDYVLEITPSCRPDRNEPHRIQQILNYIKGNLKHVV
Kind of test: KDAC inhibition assay, KDAC8. Type of test: biochemical. The settings on record: mean of three technical replicates. On the procedure: (§1) KDAC1, 2, 3 6, and 8 inhibition assays were performed as described previously.[52] Briefly, the relevant human recombinant KDAC was diluted in an assay buffer with the following composition: 150 mM NaCl, 25 mM Tris–HCl (pH 8.0), 2.7 mM KCl, and 1 mM MgCl2; BSA (0.1 mg/mL) was also added in the case of KDAC1. Forty microliters of this solution were added to 10 μL of each inhibitor ([…]) and 50 μL of KDAC Assay substrate (Boc-Lys-(Ac)-AMC, 7–100 μM final concentration, depending on the KDAC isoform), and the resulting solution was mixed. […] After thorough mixing of the resulting solution, the plate was covered and incubated at 37 °C for 25 min and the fluorescence (λemission = 460 nm; λexcitation = 390 nm) was measured on a EnSight Multimode Plate Reader (Perkin Elmer). The shown values are average of three technical replicates ± SD.

The target in test [2] is T2, KDAC6 (Homo sapiens, UniProt Q9UBN7).
T2 sequence (Q9UBN7 1-1215): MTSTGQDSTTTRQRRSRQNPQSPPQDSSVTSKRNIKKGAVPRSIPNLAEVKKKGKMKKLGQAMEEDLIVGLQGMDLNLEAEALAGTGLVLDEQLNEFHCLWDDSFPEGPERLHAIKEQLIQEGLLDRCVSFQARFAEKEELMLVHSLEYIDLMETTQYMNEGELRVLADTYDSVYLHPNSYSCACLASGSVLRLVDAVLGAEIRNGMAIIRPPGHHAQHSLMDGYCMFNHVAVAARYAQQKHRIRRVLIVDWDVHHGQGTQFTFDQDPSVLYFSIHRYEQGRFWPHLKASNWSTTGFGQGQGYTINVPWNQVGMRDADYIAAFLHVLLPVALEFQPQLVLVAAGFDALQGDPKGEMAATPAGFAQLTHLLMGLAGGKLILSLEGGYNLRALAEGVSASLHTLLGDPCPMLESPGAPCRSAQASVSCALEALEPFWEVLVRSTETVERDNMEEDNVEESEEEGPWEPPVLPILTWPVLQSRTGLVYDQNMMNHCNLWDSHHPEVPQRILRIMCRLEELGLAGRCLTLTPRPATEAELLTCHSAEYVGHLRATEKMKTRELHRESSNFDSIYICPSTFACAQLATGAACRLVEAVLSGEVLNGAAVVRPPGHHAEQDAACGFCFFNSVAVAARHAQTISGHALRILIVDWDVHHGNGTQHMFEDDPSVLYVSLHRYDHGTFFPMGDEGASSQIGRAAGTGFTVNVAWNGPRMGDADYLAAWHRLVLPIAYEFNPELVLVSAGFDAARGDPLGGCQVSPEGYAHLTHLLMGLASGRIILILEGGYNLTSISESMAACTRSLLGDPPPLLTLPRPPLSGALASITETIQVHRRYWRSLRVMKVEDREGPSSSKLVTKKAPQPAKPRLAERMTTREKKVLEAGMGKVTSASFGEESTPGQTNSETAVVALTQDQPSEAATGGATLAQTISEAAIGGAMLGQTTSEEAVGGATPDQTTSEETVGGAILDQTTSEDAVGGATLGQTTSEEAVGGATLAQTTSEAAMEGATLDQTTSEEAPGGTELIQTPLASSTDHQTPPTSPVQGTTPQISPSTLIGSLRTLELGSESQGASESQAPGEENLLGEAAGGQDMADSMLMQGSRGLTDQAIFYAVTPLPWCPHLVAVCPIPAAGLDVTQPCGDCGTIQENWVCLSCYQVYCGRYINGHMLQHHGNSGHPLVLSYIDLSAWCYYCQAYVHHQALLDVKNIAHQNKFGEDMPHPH
Kind of test: KDAC inhibition assay, KDAC6. The class given is biochemical. The settings on record: mean of three technical replicates. As to the method: as §1

Test [3] has as its target KDAC3 (Homo sapiens, UniProt O15379). Kind of test: KDAC inhibition assay, KDAC3. The class given is biochemical. The following applies: mean of three technical replicates. On the procedure:
as §1

The subject of test [4] is HCT116 cells. Nature of the test: MTT cell proliferation assay, HCT116. The settings on record: for antiproliferative activity in HCT116: 10, 25, 50, 100 μM, 72 h; for IC50: Homo sapiens, HCT-116, 72 h treatment, MTT. Type of test: cell-based, human. The source says: Human commercially available AML U937, breast cancer MCF7, lung adenocarcinoma NCI-H460, H1299 and A-549, glioblastoma U251, B lymphocyte AHH1 cell lines were maintained in compete 10% foetal bovine serum (FBS,) RPMI 1640 (Euroclone, Milan, IT) medium. Human commercially available colon cancer HCT116 and HT29 lines and cervix adenocarcinoma HeLa cells were maintained in compete 10% FBS Dulbecco’s Modified Eagle Medium (DMEM) high glucose medium (Euroclone). L-Glutamine, FBS, and penicillin streptomycin mixture added to medium were obtained from Euroclone. All cell lines were cultured at 37 °C in a humidified atmosphere of 5% CO2:95% air and were tested for mycoplasma contamination routinely by RT-PCR.
For analysis of cell proliferation, cells were plated in sextuplicate on 96-well plates in complete media. After 24 h, cells were exposed to different drugs for 72 h. The inhibitory effect of different drugs was assessed by MTT (Sigma, St. Louis, MO, USA) colorimetric assays as previously reported.[67] Aqueous DMSO (0.5% v/v) was used as a control (untreated). The results are reported as “viability of drug-treated cells/viability of untreated cells” × 100 and represent the average ±SD of three independent experiments. IC50 values were using fitted by nonlinear regression using GraphPad Prism 8.0.
In general terms: Tetrazolium assays rely on reduction of a dye to a coloured formazan, in cell work by metabolically active cells.

Sequence of KDAC3 (O15379 whole entry): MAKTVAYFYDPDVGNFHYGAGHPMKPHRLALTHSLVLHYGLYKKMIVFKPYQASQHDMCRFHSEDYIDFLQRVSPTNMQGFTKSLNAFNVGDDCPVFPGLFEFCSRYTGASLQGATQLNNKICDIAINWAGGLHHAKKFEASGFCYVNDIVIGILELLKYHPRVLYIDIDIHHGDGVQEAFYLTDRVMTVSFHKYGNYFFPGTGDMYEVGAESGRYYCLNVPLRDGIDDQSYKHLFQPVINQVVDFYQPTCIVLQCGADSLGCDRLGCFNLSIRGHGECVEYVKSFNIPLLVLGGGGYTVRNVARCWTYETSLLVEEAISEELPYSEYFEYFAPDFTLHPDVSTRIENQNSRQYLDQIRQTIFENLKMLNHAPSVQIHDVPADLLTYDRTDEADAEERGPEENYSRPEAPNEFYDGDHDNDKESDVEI
Sequence of KDAC3 (Q9Y618 395-489 partner limits assumed): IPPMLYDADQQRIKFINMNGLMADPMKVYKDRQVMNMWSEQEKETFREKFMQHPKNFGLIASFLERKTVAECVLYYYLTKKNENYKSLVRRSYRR

Usually inhibition stands for the change of the read-out against control, counted positive when it falls. Regarding `CC1=NN(c2ccc(C(=O)O)cc2)C(=O)/C1=C\c1ccc(-c2cc(C)c(C)cc2[N+](=O)[O-])o1` [VII (C646), reference compound], the results for the inhibition at 50 µM in test [1], in test [2] and in test [3] were 77.6%, 87.2% and 54.5%, respectively. The values for the inhibition at 100 µM in test [1], in test [2] and in test [3] were 89.1%, 98.1% and 86.2%, respectively.
In general, IC50 refers to the midpoint of a concentration-inhibition curve. As to `O=C(O)c1ccc(N2N=C(c3ccccc3)/C(=C/c3ccc[nH]3)C2=O)cc1` [Compound 34, (Z)-4-(4-((1H-Pyrrol-2-yl)methylene)-5-oxo-3-phenyl-4,5-dihydro-1H-pyrazol-1-yl)benzoic Acid], the “antiproliferative activity in HCT116” value in test [4] is “dose-dependent antiproliferative effects”. Further, the IC50 in test [4] worked out at 46.6 ± 11.5 µM. Moreover, the inhibition at 50 µM was found to be 0.04% in test [1], 0.6% in test [2] and 0.02% in test [3]. Further, the inhibition at 100 µM is 0.6% in test [1], 2.1% in test [2] and 0.6% in test [3].
For the compound `CC1=NN(c2ccc(C(=O)O)cc2)C(=O)/C1=C\c1ccc[nH]1` [Compound 19, (Z)-4-(4-((1H-Pyrrol-2-yl)methylene)-3-methyl-5-oxo-4,5-dihydro-1H-pyrazol-1-yl)benzoic Acid], in test [4], the “antiproliferative activity in HCT116” value is “dose-dependent antiproliferative effects” and half-maximal inhibition (IC50) was put at 39.4 ± 8.2 µM. In addition, in test [1], the inhibition at 50 µM turned out to be 0.02% and at 100 µM the inhibition was 0.8%. In test [2], this compound showed an inhibition at 50 µM of 0.4% and an inhibition at 100 µM of 1.3%. Besides, in test [3], at 50 µM the inhibition was 0.5% and at 100 µM the inhibition was 1.1%.

Values taken from PMC10226132, “First-in-Class Selective Inhibitors of the Lysine Acetyltransferase KAT8” (Journal of Medicinal Chemistry, 2023).
